# Reference: patent publication US20130273567A1, “Screening Method for Candidate Agonist Compounds for Adiponectin Receptor I” (priority 2010, published 2013)
# What was measured:
# muscle-R1KO mice [1] = assay: Treatment of muscle-R1KO mice with AICAR, resveratrol or MnTBAP; format: in vivo; conditions: for citrate synthase activities in muscle / insulin resistance / mitochondrial content in muscle: AICAR 500, resveratrol 400, MnTBAP 10 mg per kg body weight per day
# Experimental: Oral glucose tolerance test (OGTT) and insulin tolerance test (ITT) were conducted by the method described in the following documents (Nature Med. 8, 1288-1295 (2002); Nature Med. 7, 941-946 (2001)), with some modifications. The areas of the glucose and insulin curves were calculated, respectively, by multiplying the cumulative mean height of the glucose values (1 mg/ml=1 cm) and insulin values (1 ng/ml=1 cm) by time (60 min=1 cm) (Nature Med. 13, 332-339 (2007); Nature Med. 7, 941-946 (2001)). The insulin resistance index was calculated from the product of the areas of glucose and insulin×10^−2 in the glucose tolerance test. The results were expressed as the percentage of the value of control littermates.
# C2C12 myocytes = assay: Mitochondrial content assay in C2C12 myocytes (mtDNA copy number, MitoTracker Green); format: cell-based, mouse; conditions: C2C12 myocytes preincubated with AraA 0.5 mM 1 hr or STO-609 1 μg/ml 6 hr, then adiponectin 48 hr
# Experimental: Mice used were from 8 to 10 week old at the time of the experiment. […] Induction of myogenic differentiation using C2C12 cells was carried out according to the method described in the following document (Nature Med. 8, 1288-1295 (2002)). By day 5, the cells had differentiated into multinucleated contracting myocytes. C2C12 myocytes were used after myogenic differentiation in all experiments.
# (§1) The mouse C2C12 myoblasts were grown in 90% Dulbecco's modified high glucose Eagle's medium containing 10% (v/v) fetal bovine serum. When the cells reached 80% confluent, the myoblasts were induced to differentiate into myocytes by replacing the medium with a low serum differentiation medium (98% Dulbecco's modified high glucose Eagle's medium, 2.5% (v/v) horse serum). The medium was changed daily. The C2C12 cells were transfected by using Pofectamine 2000 (Invitrogen) and following the manufacturer's instructions.
# (§2) Mitochondrial content assays were carried out as described in the following document (Cell Metab. 4, 75-87 (2006)), with slight modifications. Quantification of the mitochondrial content was conducted by using mtDNA and MitoTracker Green probe (Molecular Probes) according to the method as described in the following document (Obes. Res. 13, 574-581 (2005)). MitoTracker Green probe preferentially accumulates in mitochondria regardless of the mitochondrial membrane potential and provides an accurate assessment of mitochondrial mass. Cells were washed with PBS and after addition of 100 nM MitoTracker Green FM (Molecular Probes), incubated at 37° C. for 30 min. Cells were harvested by using trypsin/EDTA and resuspended in PBS. Fluorescence intensity was detected with excitation and emission wavelengths of 490 and 516 nm, respectively, and the values thus measured were corrected for total protein (mg/ml).
# PGC-1α = PGC-1α (Ppargc1a mRNA) expression in C2C12 myocytes; format: cell-based, mouse; conditions: C2C12 myocytes preincubated with AraA 0.5 mM 1 hr, STO-609 1 μg/ml 6 hr or EGTA 5 mM 20 min, then adiponectin 10 μg/ml 1.5 hr
# Experimental: Real-time PCR was carried out according to the method described in the following documents (Nature Med. 13, 332-339 2007); Nature 423, 762-769 (2003); J. Biol. Chem. 281, 8748-8755 (2006)). Total RNA was prepared from cells or tissues by using Trizol (Invitrogen) according to the manufacturer's instructions. Quantification of mRNA was conducted using a real-time PCR method (Nature 423, 762-769 (2003)) with slight modifications. The procedures used for immunoblotting are described in the following documents (Nature Med. 7, 941-946 (2001); J. Biol. Chem. 281, 26602-26614 (2006); J. Biol. Chem. 281, 8748-8755 (2006)). The livers or muscles were freeze-clamped in liquid nitrogen in situ (Nature Med. 7, 941-946 (2001); J. Biol. Chem. 281, 26602-26614 (2006); J. Biol. Chem. 281, 8748-8755 (2006)). The mouse C2C12 myoblasts were grown in 90% Dulbecco's modified high glucose Eagle's medium containing 10% (v/v) fetal bovine serum. When the cells reached 80% confluent, the myoblasts were induced to differentiate into myocytes by replacing the medium with a low serum differentiation medium (98% Dulbecco's modified high glucose Eagle's medium, 2.5% (v/v) horse serum). The medium was changed daily. The C2C12 cells were transfected by using Pofectamine 2000 (Invitrogen) and following the manufacturer's instructions.
# AMPK = AMPK phosphorylation in C2C12 myocytes (immunoblotting); format: cell-based, mouse; conditions: for effect on adiponectin-induced increase in AMPK phosphorylation: C2C12 myocytes preincubated with 5 mM EGTA 20 min, 50 μM BAPTA-AM 30 min or 10 μM U73122 30 min, then adiponectin 30 μg/ml 5 min
# Experimental: as §1
# muscle-R1KO mice [2] = assay: Increased calcium influx experiment (Bay-K 8644 gelatin hydrogel) in muscle-R1KO mice; format: in vivo; conditions: 0.25 μM Bay-K 8644
# Experimental: as §2
# Citrate synthase activity was determined from the homogeneates by using a spectrophotometer according to the method described in the following documents (Cell Metab. 4, 75-87 (2006); Eur. J. Biochem. 10, 198-206 (1969); Obes Res 13, 574-581 (2005)). The citrate synthase activity was measured at 37° C. in 0.1M Tris-HCl (pH 8.3) assay buffer containing 0.12 mM 5,5′-dithio-bis(2-nitrobenzoic acid) and 0.6 mM oxaloacetate. After recording of absorbance at 412 nm in the first two minutes, the reaction was started with the addition of 3 mM acetyl-CoA and a change in absorbance was measured every 10 sec for 7 min.
# Hydrogels were prepared by crosslinking aqueous gelatin solutions with glutaraldehyde according to the method described in the following document (J. Control Release 64, 133-142 (2000)). For incorporating Bay-K 8644 into the resulting gelatin hydrogels, 20 μl of Bay-K 8644 (0.25 μM) was added dropwise onto 20 mg of freeze-dried hydrogel and left it overnight at 4° C. Under anesthesia, the gelatin hydrogel having Bay-K 8644 incorporated therein was implanted under the skin. Then, the skin was carefully sutured with No. 4-0 nylon monofilament.
# AdipoR1 = target: T1, AdipoR1 (Mus musculus, UniProt Q91VH1); assay: Calcium imaging in C2C12 myocytes (fura-2); format: cell-based; parameters: endogenous in cells; host or cells: mouse C2C12 myocytes (differentiated from myoblasts)
# T1 sequence (Q91VH1 1-375): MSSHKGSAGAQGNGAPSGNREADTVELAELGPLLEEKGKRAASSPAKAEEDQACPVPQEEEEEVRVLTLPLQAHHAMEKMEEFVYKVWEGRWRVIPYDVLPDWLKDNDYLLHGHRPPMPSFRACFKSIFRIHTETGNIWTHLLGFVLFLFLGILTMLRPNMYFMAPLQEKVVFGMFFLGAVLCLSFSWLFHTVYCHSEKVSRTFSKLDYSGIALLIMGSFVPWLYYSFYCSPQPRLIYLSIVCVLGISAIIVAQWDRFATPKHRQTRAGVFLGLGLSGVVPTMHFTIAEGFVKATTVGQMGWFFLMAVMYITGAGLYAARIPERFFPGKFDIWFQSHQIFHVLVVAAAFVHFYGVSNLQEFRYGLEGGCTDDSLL
# Experimental: C212 myocytes cultured on glass base dishes (IWAKI) were treated with 2.5 μM fura-2/AM for 30 min. Fluorescence was measured with an Aquacosmos Calcium Imaging system (Hamamatsu Photonics). Ligands were delivered through the superfusing Ringer's solution (140 mM NaCl, 5.6 mM KCl, 5 mM HEPES, 2.0 mM sodium pyruvate, 1.25 mM KH2PO4, 2.0 mM CaCl2, 2.0 mM MgCl2, 9.4 mM D-glucose (pH 7.4)). For the calcium chelating experiment, EGTA solution (140 mM NaCl, 5.6 mM KCl, 5 mM HEPES, 2.0 mM sodium pyruvate, 1.25 mM KH2PO4, 2.0 mM MgCl2, 5.0 mM EGTA-2Na, 9.4 mM D-glucose (pH 7.4) was used for the bath solution. Fura-2 fluorescence ratios were calibrated to calcium ion signals.
# mAdipoR1 = target: T2, mAdipoR1 (Mus musculus, UniProt Q91VH1); assay: Xenopus oocytes injected with AdipoR1 cRNA, two-electrode voltage clamp recording; format: cell-based; conditions: Xenopus oocytes expressing AdipoR1, 5 mM EGTA
# T2 construct: expressed in transfected cells; host or cells: Xenopus oocytes (stage V to VII) injected with cRNA
# T2 sequence (Q91VH1 1-375): T1 sequence (Q91VH1 1-375)
# Experimental: Stage V to VII oocytes were treated with 2 mg/ml of collagenase S-1 (Nitta gelatin) in calcium ion-free saline solution (82.5 mM NaCl, 2 mM KCl, 1 mM MgCl2, and 5 mM HEPES, pH 7.5) for 1 to 2 hr at room temperature. The resulting oocytes were then microinjected with 50 ng of cRNA for mAdipoR1. The cRNA was synthesized from linearized modified pSPUTK. The injected oocytes were incubated for 3 days at 18° C. in a bath solution (88 mM NaCl, 1 mM KCl, 0.3 mM Ca(NO3)2, 0.4 mM CaCl2, 0.8 mM MgSO4, 2.4 mM NaHCO3, 15 mM HEPES, pH 7.6) supplemented with 10 μg/ml of penicillin and streptomycin.
# Whole cell currents were recorded with a two-electrode voltage clamp technique. Intracellular glass electrodes were filled with 3M KCl. Signals were amplified with an OC-725C amplifier (Warner Instruments), low-pass filtered at 50 Hz, and digitized at 1 kHz. A control bath solution contained 115 mM NaCl, 2.5 mM KCl, 1.8 mM CaCl2, and 10 mM HEPES. It was titrated to pH 7.2 with NaOH. A calcium ion free solution containing 1.8 mM BaCl2 instead of CaCl2 was used. The inward current was monitored at a holding potential of −80 mV. Calcium ion activated Cl^− current was monitored by applying 500-mscc depolarizing pulses of +100 mV and +50 mV from the holding potential of −80 mV. Adiponectin was supplied to the superfusing bath solution via a silicon tube connected to computer-driven solenoid valves. Data acquisition and analysis were carried out using Digidata 1322A and pCLAMP software.
# CaMKI, HDAC5 = assay: Phosphorylation of CaMKI and HDAC5 in C2C12 myocytes (immunoblotting); format: cell-based, mouse; conditions: 5 mM EGTA
# Experimental: as §1
compound,measurement,setting,value
"NC(=O)c1ncn([C@@H]2O[C@H](CO)[C@@H](O)[C@H]2O)c1N [AICAR, 5-aminoimidazole-4-carboxamide-1-β-D-libocide]",citrate synthase activities in muscle,"muscle-R1KO mice [1]; muscle-R1KO mice, 2 weeks",increased
same,insulin resistance,"muscle-R1KO mice [1]; muscle-R1KO mice, 2 weeks",significantly ameliorated
same,mitochondrial content in muscle,"muscle-R1KO mice [1]; muscle-R1KO mice, 2 weeks",increased
same,rescue of the AdipoR1 loss in muscle,"muscle-R1KO mice [1]; muscle-R1KO mice, AICAR 500 mg per kg body weight per day, 2 weeks",significantly but partially rescued
same,phosphorylation of AMPK in muscle,"muscle-R1KO mice [1]; muscle-R1KO mice, AICAR 500 mg per kg body weight per day, 2 hours",significantly increased
Nc1ncnc2c1ncn2[C@@H]1O[C@H](CO)[C@@H](O)[C@@H]1O [AraA],effect on adiponectin-induced increase in mitochondrial biogenesis,C2C12 myocytes,almost completely abolished
same,effect on PGC-1α expression induced by adiponectin,PGC-1α,only tended to decrease
"CC(=O)OCOC(=O)CN(CC(=O)OCOC(C)=O)c1ccccc1OCCOc1ccccc1N(CC(=O)OCOC(C)=O)CC(=O)OCOC(C)=O [BAPTA-AM, Bis-(o-aminophenoxy)ethane-N,N,N9,N9-tetra-acetic acid, tetraacetoxymethyl ester]",effect on adiponectin-induced increase in AMPK phosphorylation,AMPK,partially suppressed
COC(=O)C1=C(C)NC(C)=C([N+](=O)[O-])C1c1ccccc1C(F)(F)F (stereo not shown) [Bay-K 8644],CaMKKβ activity (phosphorylation of CaMKI) in skeletal muscle,muscle-R1KO mice [2],increase
same,citrate synthase activities in muscle,muscle-R1KO mice [2],significantly enhanced
same,insulin-stimulated phosphorylation of Akt in muscle,muscle-R1KO mice [2],significantly enhanced
same,mitochondrial content in muscle,muscle-R1KO mice [2],significantly enhanced
O=C(O)CN(CCOCCOCCN(CC(=O)O)CC(=O)O)CC(=O)O [EGTA],effect on adiponectin-induced calcium ion response,AdipoR1; 5 mM EGTA (removal of extracellular free calcium ions),almost completely abolished
same,effect on ATP-induced intracellular calcium ion release,AdipoR1; EGTA,had no effect
same,effect on adiponectin-induced inward current responses,mAdipoR1,almost completely abolishes
same,effect on calcium-ion activated Cl- current responses to adiponectin,mAdipoR1,almost completely abolished
same,effect on PGC-1α expression induced by adiponectin,PGC-1α,effectively and almost completely abolished
same,effect on adiponectin-induced increase in AMPK phosphorylation,AMPK,partially suppressed
same,effect on phosphorylation of AMPK induced by AICAR,"AMPK; C2C12 myocytes, 5 mM EGTA, AICAR 1 mM 1 hr",had no effect
same,effect on ionomycin-dependent phosphorylation of AMPK,"AMPK; C2C12 myocytes, 5 mM EGTA, ionomycin 1 μM",almost completely abolished
same,effect on increased CaMKI phosphorylation stimulated with adiponectin,"CaMKI, HDAC5",almost completely abolished
O=C(O)c1ccc(/C2=C3\C=CC(=N3)/C(c3ccc(C(=O)O)cc3)=c3/cc/c4[n]3[Mn]([Cl])[n]3c2ccc3/C(c2ccc(C(=O)O)cc2)=C2/C=CC(=N2)\C=4c2ccc(C(=O)O)cc2)cc1 [MnTBAP],ROS such as H2O2 in skeletal muscle,"muscle-R1KO mice [1]; MnTBAP 10 mg per kg body weight per day, 2 weeks",significantly decreased
same,citrate synthase activities in muscle,"muscle-R1KO mice [1]; muscle-R1KO mice, 2 weeks",failed to significantly increase
same,insulin resistance,"muscle-R1KO mice [1]; muscle-R1KO mice, 2 weeks",tended to ameliorate
same,mitochondrial content in muscle,"muscle-R1KO mice [1]; muscle-R1KO mice, 2 weeks",failed to significantly increase
O=C(O)c1ccc2c3c1cccc3c(=O)n1c3ccccc3nc21 [STO-609],effect on adiponectin-induced increase in mitochondrial biogenesis,C2C12 myocytes,almost completely abolished
same,effect on PGC-1α expression induced by adiponectin,PGC-1α,effectively and almost completely abolished
COc1ccc2c(c1)CC[C@@H]1[C@@H]2CC[C@]2(C)[C@@H](NCCCCCCN3C(=O)C=CC3=O)CC[C@@H]12 [U73122],effect on adiponectin-induced increase in AMPK phosphorylation,AMPK,had little effect
Oc1ccc(C=Cc2cc(O)cc(O)c2)cc1 [resveratrol],citrate synthase activities in muscle,"muscle-R1KO mice [1]; muscle-R1KO mice, 2 weeks",increased
same,insulin resistance,"muscle-R1KO mice [1]; muscle-R1KO mice, 2 weeks",significantly ameliorated
same,mitochondrial content in muscle,"muscle-R1KO mice [1]; muscle-R1KO mice, 2 weeks",increased
